Our source for the IC50 and Ki values is ChEMBL document CHEMBL1909046, “DrugMatrix in vitro pharmacology data”.

Data set [1] concerns the target T1, Polyunsaturated fatty acid lipoxygenase ALOX15 (Oryctolagus cuniculus, UniProt P12530).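 Also: inhibition of 15-lipoxygenase enzyme activity measured with linoleic acid as the substrate; in other assays of this panel Not Active means under 50% inhibition at 10 µM.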
T1 sequence (P12530 whole entry): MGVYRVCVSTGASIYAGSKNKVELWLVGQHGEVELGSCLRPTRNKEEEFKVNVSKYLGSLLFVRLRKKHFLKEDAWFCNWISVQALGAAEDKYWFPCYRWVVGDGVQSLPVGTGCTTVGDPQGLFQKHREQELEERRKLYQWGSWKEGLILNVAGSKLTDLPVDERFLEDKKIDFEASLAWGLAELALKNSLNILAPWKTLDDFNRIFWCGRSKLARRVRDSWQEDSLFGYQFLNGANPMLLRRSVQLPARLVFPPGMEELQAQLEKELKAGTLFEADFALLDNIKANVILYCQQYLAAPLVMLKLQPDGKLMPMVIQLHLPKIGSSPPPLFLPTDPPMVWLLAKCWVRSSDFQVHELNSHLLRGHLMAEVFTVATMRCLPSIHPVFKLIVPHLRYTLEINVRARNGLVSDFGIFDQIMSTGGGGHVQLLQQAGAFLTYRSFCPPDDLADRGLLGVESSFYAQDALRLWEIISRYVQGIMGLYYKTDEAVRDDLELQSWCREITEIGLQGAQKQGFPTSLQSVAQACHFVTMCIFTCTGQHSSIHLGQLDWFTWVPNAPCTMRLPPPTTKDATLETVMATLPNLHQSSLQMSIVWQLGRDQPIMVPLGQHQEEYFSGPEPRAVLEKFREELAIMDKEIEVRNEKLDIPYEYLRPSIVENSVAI
The data set can be described thus: biochemical. Format: tissue-based, Reticulocytes.

Data set [2] concerns the target Prostaglandin G/H synthase 1 (Homo sapiens, UniProt P23219). The data set can be described thus: biochemical. As to conditions: platelet. Type of data set: tissue-based, Platelet.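 Also: inhibition of COX-1 enzyme activity, with arachidonic acid supplied as substrate; in other assays of this panel Not Active means under 50% inhibition at 10 µM.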
The target in the next data set is T2, Substance-K receptor (Homo sapiens, UniProt P21452). Also: in other assays of this panel Not Active means under 50% inhibition at 10 µM.
T2 sequence (P21452 whole entry): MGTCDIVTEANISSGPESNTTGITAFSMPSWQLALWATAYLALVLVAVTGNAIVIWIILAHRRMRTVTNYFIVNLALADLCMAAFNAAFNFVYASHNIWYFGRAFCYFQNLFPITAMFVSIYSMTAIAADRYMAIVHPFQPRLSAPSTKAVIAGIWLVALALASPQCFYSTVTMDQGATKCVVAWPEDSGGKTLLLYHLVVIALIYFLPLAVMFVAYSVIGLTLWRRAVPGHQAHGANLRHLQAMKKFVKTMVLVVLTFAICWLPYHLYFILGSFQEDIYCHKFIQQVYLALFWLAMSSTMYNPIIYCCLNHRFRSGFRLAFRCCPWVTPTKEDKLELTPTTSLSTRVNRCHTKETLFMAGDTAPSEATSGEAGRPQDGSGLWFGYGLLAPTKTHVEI
Type of data set: cell membranes, CHO, Membrane. The note with it: cho.

The target in data set [3] is Sodium-dependent noradrenaline transporter (Homo sapiens, UniProt P23975). Description: DRUGMATRIX: Norepinephrine Transporter radioligand binding (ligand: [125I] RTI-55). Format: cell membranes, MDCK, Membrane. The note with it: Not Active = under 50% inhibition at 10 µM.
Sequence of Sodium-dependent noradrenaline transporter (P23975 whole entry): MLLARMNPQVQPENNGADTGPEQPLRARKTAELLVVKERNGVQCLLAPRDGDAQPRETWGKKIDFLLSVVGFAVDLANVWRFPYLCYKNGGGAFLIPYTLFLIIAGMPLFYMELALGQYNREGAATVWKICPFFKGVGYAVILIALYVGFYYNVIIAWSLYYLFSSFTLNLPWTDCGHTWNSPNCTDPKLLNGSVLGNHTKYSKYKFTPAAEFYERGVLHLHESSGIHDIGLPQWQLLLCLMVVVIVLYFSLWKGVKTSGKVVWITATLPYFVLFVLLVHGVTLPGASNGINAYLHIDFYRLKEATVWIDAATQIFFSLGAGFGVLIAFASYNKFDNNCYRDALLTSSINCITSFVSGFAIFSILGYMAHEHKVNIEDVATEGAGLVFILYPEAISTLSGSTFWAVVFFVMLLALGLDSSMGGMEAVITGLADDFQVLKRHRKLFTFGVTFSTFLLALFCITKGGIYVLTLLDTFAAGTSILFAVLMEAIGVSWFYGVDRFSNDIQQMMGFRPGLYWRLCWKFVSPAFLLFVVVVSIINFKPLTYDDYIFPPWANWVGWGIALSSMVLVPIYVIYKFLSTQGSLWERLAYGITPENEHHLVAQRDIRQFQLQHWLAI
Another data set addresses T3, Cytochrome P450 1A2 (Homo sapiens, UniProt P05177).
T3 sequence (P05177 whole entry): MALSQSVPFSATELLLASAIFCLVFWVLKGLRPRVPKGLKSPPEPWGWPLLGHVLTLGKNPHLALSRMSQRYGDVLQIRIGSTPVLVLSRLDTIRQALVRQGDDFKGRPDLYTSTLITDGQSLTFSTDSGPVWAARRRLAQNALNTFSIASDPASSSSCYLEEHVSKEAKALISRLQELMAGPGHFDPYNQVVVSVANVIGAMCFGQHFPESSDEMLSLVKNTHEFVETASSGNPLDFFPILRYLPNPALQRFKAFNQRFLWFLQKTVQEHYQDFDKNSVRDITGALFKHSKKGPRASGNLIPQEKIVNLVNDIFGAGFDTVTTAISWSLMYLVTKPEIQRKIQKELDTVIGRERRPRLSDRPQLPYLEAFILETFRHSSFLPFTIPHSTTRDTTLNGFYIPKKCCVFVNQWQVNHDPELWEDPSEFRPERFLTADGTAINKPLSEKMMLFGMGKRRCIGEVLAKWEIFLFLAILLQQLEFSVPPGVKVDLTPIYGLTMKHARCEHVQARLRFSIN
The note with it: bti-tn-5b1-4.

Sequence of Prostaglandin G/H synthase 1 (P23219 whole entry): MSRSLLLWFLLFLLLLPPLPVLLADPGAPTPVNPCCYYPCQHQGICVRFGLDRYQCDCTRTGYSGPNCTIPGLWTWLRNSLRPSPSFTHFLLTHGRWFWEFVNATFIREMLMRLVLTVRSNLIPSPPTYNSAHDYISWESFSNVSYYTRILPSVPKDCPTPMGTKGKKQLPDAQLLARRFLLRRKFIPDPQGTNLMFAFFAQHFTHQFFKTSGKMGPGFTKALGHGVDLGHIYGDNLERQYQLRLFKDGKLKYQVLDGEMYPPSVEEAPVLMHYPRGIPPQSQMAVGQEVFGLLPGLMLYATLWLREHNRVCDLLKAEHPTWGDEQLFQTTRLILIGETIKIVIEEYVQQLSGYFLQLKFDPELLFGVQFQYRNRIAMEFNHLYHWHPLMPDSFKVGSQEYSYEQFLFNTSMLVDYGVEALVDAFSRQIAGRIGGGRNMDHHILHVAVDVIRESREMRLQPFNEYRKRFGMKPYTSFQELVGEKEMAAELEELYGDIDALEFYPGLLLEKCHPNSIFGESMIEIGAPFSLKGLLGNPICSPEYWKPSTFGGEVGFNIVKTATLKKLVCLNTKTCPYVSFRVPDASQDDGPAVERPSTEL

Broadly, the IC50 is the concentration needed to halve the response being measured. The Ki is a dissociation constant, usually derived from enzyme kinetics or from competition with a known ligand. In the case of `Cc1ccc(NC(=O)c2ccc(CN3CCN(C)CC3)cc2)cc1Nc1nccc(-c2cccnc2)n1` [IMATINIB], the IC50 result (in data set [1] (reticulocytes); in data set [2]; at Substance-K receptor; in data set [3] (mdck); on Cytochrome P450 1A2) was “Not Active” in each case. The Ki result on Cytochrome P450 1A2 is recorded as “Not Active”.

Turning to `CC(C)NCC(O)c1ccc(O)c(O)c1` (configuration not stated) [ISOPROTERENOL], the IC50 was 1.77 µM in data set [1] (read-out: IC50); “Not Active” in data set [2]; “Not Active” at Substance-K receptor; “Not Active” in data set [3] (mdck); “Not Active” against Cytochrome P450 1A2. Also, the Ki entry on Cytochrome P450 1A2 is recorded as “Not Active”.

As to `CNC1(c2ccccc2Cl)CCCCC1=O` (configuration not stated) [KETAMINE], the IC50 result (in data set [1] (reticulocytes); in data set [2]; on Substance-K receptor; in data set [3] (mdck); at Cytochrome P450 1A2) was “Not Active” each time. For the same molecule, the Ki entry on Cytochrome P450 1A2 is given as “Not Active”.

Take `CCN1CCC[C@H]1CNC(=O)c1cc(S(N)(=O)=O)ccc1OC` [LEVOSULPIRIDE]: the IC50 entry (in data set [1] (reticulocytes); in data set [2]; on Substance-K receptor; in data set [3] (mdck); against Cytochrome P450 1A2) was “Not Active” each time. On Cytochrome P450 1A2, the Ki entry is listed as “Not Active”.

In the case of `O=C1Nc2ccc(Cl)cc2C(c2ccccc2Cl)=NC1O` (configuration not stated) [LORAZEPAM], the IC50 entry (in data set [1] (reticulocytes); in data set [2]; against Substance-K receptor; in data set [3] (mdck); against Cytochrome P450 1A2) was “Not Active” in each case. Besides, at Cytochrome P450 1A2, the Ki result was “Not Active”.

Regarding `CO[C@@H]1[C@@H](OC)[C@H](C)[C@@](O)(CC(=O)O)O[C@H]1[C@H](C)[C@H]1O[C@@]2(CC[C@@](C)([C@H]3CC[C@@](C)([C@@H]4O[C@@H]([C@H]5O[C@](C)(O)[C@H](C)C[C@@H]5C)C[C@@H]4O[C@@H]4C[C@H](OC)[C@@H](OC)[C@H](C)O4)O3)O2)C[C@H](O)[C@H]1C` [MADURAMICIN ACID], the IC50 result (in data set [1] (reticulocytes); in data set [2]; at Substance-K receptor; in data set [3] (mdck); at Cytochrome P450 1A2) was “Not Active” each time. The Ki entry at Cytochrome P450 1A2 was “Not Active”.

In the case of `C[C@H]1C[C@@H]2[C@H]([C@@H](O)C[C@@]3(C)[C@H]2CC[C@]3(O)C(=O)CO)[C@@]2(C)C=CC(=O)C=C12` [METHYLPREDNISOLONE], the IC50 entry (in data set [1] (reticulocytes); in data set [2]; at Substance-K receptor; in data set [3] (mdck); at Cytochrome P450 1A2) was “Not Active” throughout. Further, the Ki result on Cytochrome P450 1A2 is “Not Active”.

Turning to `Cc1cccc(C)c1OCC(C)N` (configuration not stated) [MEXILETINE], the IC50 entry (in data set [1] (reticulocytes); in data set [2]; on Substance-K receptor; in data set [3] (mdck); against Cytochrome P450 1A2) was “Not Active” each time. Also, on Cytochrome P450 1A2, the Ki entry is recorded as “Not Active”.

As to `Nc1cc(N2CCCCC2)nc(N)[n+]1[O-]` [MINOXIDIL], the IC50 entry (in data set [1] (reticulocytes); in data set [2]; against Substance-K receptor; in data set [3] (mdck); against Cytochrome P450 1A2) was “Not Active” each time. For the same molecule, the inhibition constant (Ki) result on Cytochrome P450 1A2 is listed as “Not Active”.

For the molecule `CO[C@H]1/C=C/O[C@@]2(C)Oc3c(C)c(O)c4c(O)c(c(/C=N/N5CCN(C6CCCC6)CC5)c(O)c4c3C2=O)NC(=O)/C(C)=C\C=C\[C@H](C)[C@H](O)[C@@H](C)[C@@H](O)[C@@H](C)[C@H](OC(C)=O)[C@@H]1C` [RIFAPENTINE], the IC50 entry (in data set [1] (reticulocytes); in data set [2]; against Substance-K receptor; in data set [3] (mdck); against Cytochrome P450 1A2) was “Not Active” throughout. Besides, the Ki entry on Cytochrome P450 1A2 is reported as “Not Active”.

Turning to `CCCCOc1cc(CC2CNC(=O)N2)ccc1OC` (configuration not stated) [RO-201724], the IC50 entry (in data set [1] (reticulocytes); in data set [2]; at Substance-K receptor; in data set [3] (mdck); against Cytochrome P450 1A2) was “Not Active” each time. Moreover, the Ki result at Cytochrome P450 1A2 is reported as “Not Active”.

`CC[C@@H](C(=O)[C@@H](C)[C@@H](O)[C@H](C)[C@@H]1O[C@@H]([C@@H](CC)C(=O)O)CC[C@@H]1C)[C@H]1O[C@]2(C=C[C@@H](O)[C@]3(CC[C@@](C)([C@H]4CC[C@](O)(CC)[C@H](C)O4)O3)O2)[C@H](C)C[C@@H]1C` [SALINOMYCIN]: the IC50 entry (in data set [1] (reticulocytes); in data set [2]; against Substance-K receptor; in data set [3] (mdck); on Cytochrome P450 1A2) was “Not Active” each time. The Ki result at Cytochrome P450 1A2 is “Not Active”.

Take `O=C(Oc1ccccc1C(=O)O)c1ccccc1O` [SALSALATE]: the IC50 entry (in data set [1] (reticulocytes); in data set [2]; against Substance-K receptor; in data set [3] (mdck); at Cytochrome P450 1A2) was “Not Active” throughout. Also, the Ki result on Cytochrome P450 1A2 is reported as “Not Active”.

On to `O=C(O)c1cn(-c2ccc(F)cc2)c2cc(N3CCNCC3)c(F)cc2c1=O` [SARAFLOXACIN], for which the IC50 entry (in data set [1] (reticulocytes); in data set [2]; at Substance-K receptor; in data set [3] (mdck); against Cytochrome P450 1A2) was “Not Active” each time. At Cytochrome P450 1A2, the Ki entry is on record as “Not Active”.

For `CC(C)NCC(O)c1ccc(NS(C)(=O)=O)cc1` (configuration not stated) [SOTALOL], the IC50 result (in data set [1] (reticulocytes); in data set [2]; on Substance-K receptor; in data set [3] (mdck); against Cytochrome P450 1A2) was “Not Active” each time. For the same molecule, on Cytochrome P450 1A2, the Ki entry is reported as “Not Active”.

Turning to `O.O.O.O.O.O.[Cl-].[Cl-].[Sr+2]` [STRONTIUM CHLORIDE HEXAHYDRATE], the IC50 entry (in data set [1] (reticulocytes); in data set [2]; on Substance-K receptor; in data set [3] (mdck); on Cytochrome P450 1A2) was “Not Active” each time. Moreover, on Cytochrome P450 1A2, the inhibitory constant (Ki) entry is reported as “Not Active”.

Regarding `O=C1C(CC[S+]([O-])c2ccccc2)C(=O)N(c2ccccc2)N1c1ccccc1` (configuration not stated) [SULFINPYRAZONE], the IC50 result (in data set [1] (reticulocytes); in data set [2]; at Substance-K receptor; in data set [3] (mdck); on Cytochrome P450 1A2) was “Not Active” throughout. Besides, the Ki entry on Cytochrome P450 1A2 is “Not Active”.

With `COc1cc2nc(N3CCN(C(=O)C4CCCO4)CC3)nc(N)c2cc1OC` (configuration not stated) [TERAZOSIN], the IC50 result (in data set [1] (reticulocytes); in data set [2]; on Substance-K receptor; in data set [3] (mdck); against Cytochrome P450 1A2) was “Not Active” throughout. Moreover, the Ki entry at Cytochrome P450 1A2 is “Not Active”.

`CN(C/C=C/C#CC(C)(C)C)Cc1cccc2ccccc12` [TERBINAFINE]: the half-inhibitory concentration (IC50) entry was “Not Active” in data set [1] (reticulocytes); “Not Active” in data set [2]; “Not Active” on Substance-K receptor; 4.13 µM in data set [3] (read-out: IC50); “Not Active” against Cytochrome P450 1A2. The Ki in data set [3] (read-out: Ki) is 4.1 µM; on Cytochrome P450 1A2, “Not Active”.

For `Cn1c(=O)c2nc[nH]c2n(C)c1=O.O` [THEOPHYLLINE], the IC50 result (in data set [1] (reticulocytes); in data set [2]; on Substance-K receptor; in data set [3] (mdck); against Cytochrome P450 1A2) was “Not Active” each time. Also, the Ki entry on Cytochrome P450 1A2 is recorded as “Not Active”.

For `CS(=O)(=O)c1ccc([C@@H](O)[C@@H](CO)NC(=O)C(Cl)Cl)cc1` [THIAMPHENICOL], the IC50 entry (in data set [1] (reticulocytes); in data set [2]; against Substance-K receptor; in data set [3] (mdck); at Cytochrome P450 1A2) was “Not Active” throughout. Also, on Cytochrome P450 1A2, the Ki result is recorded as “Not Active”.
